Source: patent publication US4389412A, “Substituted cyclopropanecarboxylic acid esters and pesticidal compositions containing the same as active ingredient” (priority 1979, dated 1983)
Converted amounts (≈) assume the structure as drawn. Where two headings read alike, the source gives them in different places.

Legend:
[1] = tested on: green rice leafhoppers (Nephotettix cincticeps Uhler); assay: Mortality test with green rice leafhoppers by topical application method; settings: Nephotettix cincticeps, in Oryza sativa, 24 h; for LD50: read-out: LD50 (median lethal dose), topical, green rice leafhoppers; for mortality at 10 ng: read-out: Pesticidal effect, green rice leafhopper
Protocol: Mortality test with green rice leafhoppers (Nephotettix cincticeps Uhler) by topical application method
Then, the insects were kept at 25° C. with access to rice plant seedlings. The insects were used in groups of 15 individuals each.

[2] = Toxicity test with water-fleas; type: in vivo, Daphnia pulex; settings: water, 25±1° C., read-out: TLm, Water-flea (6 hrs.)
Protocol: Toxicity test with water-fleas (Daphnia pulex)
An acetone solution of one of the test compounds as mentioned in Table 10 and Tween-20 (the same surfactant as mentioned hereinbefore) was prepared. To 100 ml of water in a high-walled dish (9 cm in diameter, 7 cm deep) was added the above acetone solution. The mixture was stirred thoroughly to prepare an aqueous solution containing the test compound in a predetermined concentration. This was used as a test water. Twenty water-fleas (Daphnia pulex) were released into each test water which was maintained at 25±1° C. After 6 hours, the water-fleas were examined for deaths. The TLm (median tolerance limit, ppm) was determined.

[3] = tested on: brown planthoppers (Nilaparvata lugens Stal); assay: Utility Example-1: LC50 on adult brown planthoppers on dipped rice plants; type: in vivo; settings: Nilaparvata lugens, 24 h, 25° C., read-out: Pesticidal activity LC50
Procedure, shortened: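 Rice plants 4 weeks from sowing were dipped in water-diluted 1% emulsifiable concentrate at set concentrations and air-dried. Thirty adult N. lugens were caged on each pot, held at 25 °C.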

[4] = tested on: green rice leafhoppers (Nephotettix cincticeps Uhler); assay: Utility Example-4: 0.2% dust on rice seedlings, green rice leafhoppers; type: in vivo; settings: 5 kg per 10 ares, 24 hours, resistant to organophosphorus and carbamate pesticides
Description: (§1) A 0.2% dust preparation of each of the cis- and trans-isomers and a 50:50 mixture of the cis- and trans-isomers of Compound (1) and of Compound (2) as prepared by the procedure described in Formulation Example-3 was applied to rice seedlings by means of a bell-jar duster at the rate of 5 kg per 10 ares. […] In all cases, the mortality was not less than 90%.

[5] = tested on: tobacco cutworm (Prodenia litura); assay: Utility Example-5: spray on soy bean leaves, tobacco cutworm larvae; type: in vivo; settings: 48 h, 2 days
Protocol: An acetone solution of one of the test compounds as mentioned in Table 13 and Tween-20 (the same surfactant as mentioned hereinbefore) was prepared. This acetone solution was diluted with water to prepare a solution containing the test compound in a predetermined concentration. Leaves of soy bean in pots were sprayed with the above diluted solution at the rate of 20 ml/pot and, after one day, ten 3-instar larvae of tobacco cutworm (Prodenia litura) were released on the leaves. The pots were kept in a constant-temperature chamber at 25° C.

[6] = tested on: green rice leafhoppers (Nephotettix cincticeps); assay: Utility Example-6: 0.5% dust on rice seedlings, green rice leafhoppers; type: in vivo; settings: 1 kg per 10 ares, 24 hours, resistant to organophosphorus and carbamate pesticides
Description: as §1, with “A 0.5%” for “A 0.2%”, “Formulation Example-4” for “Formulation Example-3”, “of 1” for “of 5”, “ares. Then, 30 green rice leafhoppers (Nephotettix cincticeps) resistant to organophosphorus and carbamate pesticides were released.” for “ares.”

[7] = tested on: houseflies (Musca domestica); assay: Mortality test with houseflies by topical application method; settings: 24 h; for mortality at 0.001 mg: read-out: Pesticidal effect, housefly
[8] = Fish toxicity test with carp; type: in vivo, Cyprinus carpio L; settings: carp, water
Procedure, shortened: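 Compound in acetone with Tween-20 dispersed in 50 L aerated water at a set concentration; five carp (about 6 g, 6 cm) exposed at 21±1° C. Deaths checked after 48 h, and TLm (median tolerance limit, ppm) determined.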

[9] = Fish toxicity safety factor (TLm divided by maximum concentration in cover water); set-up: species or system carp; settings: in vivo, TLm / maximum concentration in cover water at LC50 application (100 l per 10 ares, 5 cm depth)
Procedure, shortened: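 Calculated index: carp TLm (ppm) divided by the maximum compound concentration expected in paddy cover water. That concentration assumes 100 l of solution at the pest LC50 applied per 10 ares onto 5 cm deep cover water, all of it entering the water.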

[10] = 48 hrs., 21±1° C., read-out: TLm, Carp (48 hrs.)

Row | Compound | mortality at 0.01 µg/female [1] [%] | mortality at 0.1 µg/female [1] [%] | mortality at 1 µg/female [1] [%] | LD50 [1] [mg/kg] | mortality at 10 ng [1] [%] | LC50 at 6 h [2] [µg/mL] | LC50 [3] [µg/mL] | mortality [4] | mortality at 6.5 ppm [5] [%] | mortality at 13 ppm [5] [%] | mortality [6] | mortality at 0.5 µg/female [7] [%] | mortality at 1 µg/female [7] [%] | mortality at 0.001 mg [7] [%] | LC50 at 48 h [8, 10] [µg/mL] | selectivity ratio [9] | LC50 at 48 h ([8]; Table 12 and text of Utility Example-1, read-out: Toxicity to fish TLm) [µg/mL]
1 | C#CC(OC(=O)C1C(C=C(Cl)Cl)C1(C)C)c1cccc(Oc2ccc(Cl)cc2)c1 (stereo not drawn) [Compound (2) cis-/trans- = 50:50, 3-(4-chlorophenoxy)-α-ethynylbenzyl 2,2-dimethyl-3-(2,2-dichlorovinyl)cyclopropanecarboxylate] | 100 | 100 | 100 | 0.44 | 100 | > 40 | 190 (≈ 422 µM) | not less than 90% | 100 | 100 | not less than 90% | 100 | 100 | 100 |  |  | 
2 | CC1(C)[C@@H](C=C(Cl)Cl)[C@@H]1C(=O)OCc1cccc(Oc2ccc(Cl)cc2)c1 (relative stereo) [Compound (1) trans-, 3-(4-chlorophenoxy)benzyl trans-2,2-dimethyl-3-(2,2-dichlorovinyl)cyclopropanecarboxylate] | 100 | 100 | 100 | 0.68 |  | > 40 | 650 (≈ 1530 µM) | not less than 90% |  |  | not less than 90% | 100 | 100 |  | 4.5 (≈ 10.6 µM) | 3.5 | 
3 | C#CC(OC(=O)[C@@H]1[C@@H](C=C(Cl)Cl)C1(C)C)c1cccc(Oc2ccc(Cl)cc2)c1 (relative stereo) [Compound (2) trans-] | 100 | 100 | 100 | 0.45 |  | > 40 | 180 (≈ 400 µM) | not less than 90% |  |  | not less than 90% | 100 | 100 |  | > 10 | > 28 | > 10
4 | C#CC(OC(=O)[C@@H]1[C@H](C=C(Cl)Cl)C1(C)C)c1cccc(Oc2ccc(Cl)cc2)c1 (relative stereo) [Compound (2) cis-] | 100 | 100 | 100 | 0.44 |  | > 40 | 200 (≈ 445 µM) | not less than 90% |  |  | not less than 90% | 100 | 100 |  | 0.83 (≈ 1.85 µM) | 2.1 | 
5 | CC1(C)C(C=C(Cl)Cl)C1C(=O)OCc1cccc(Oc2ccccc2)c1 (stereo not shown) [Compound (B), Permethrin] | 80 | 100 | 100 | 1.25 | 80 |  | 700 (≈ 1790 µM) |  | 60 | 90 |  | 100 | 100 | 100 | 0.015 (≈ 0.0383 µM) | 0.01 | 
